Measured values as given in US20260070903A1, “NOVEL PYRIDO[3,4-D]PYRIMIDIN-8-ONE DERIVATIVE HAVING PROTEIN KINASE INHIBITORY ACTIVITY, AND PHARMACEUTICAL COMPOSITION FOR PREVENTING, ALLEVIATING, OR TREATING CANCER, COMPRISING SAME” (KOREA INSTITUTE OF SCIENCE AND TECHNOLOGY, priority 2019, published 2026).

Columns and labels:
[1] = test system: Ba/F3 (N-Ras G12D); assay: Proliferation inhibitory activity, Ba/F3 N-Ras G12D; type: cell-based
Procedure: (§1) The inhibitory activities of the compounds of the present disclosure against the proliferation of the mt-NRAS (G12D) Ba/F3 and OCI-AML3 (mt-NRAS) cell lines were measured and the GI50 values thereof were calculated.

[2] = test system: OCI-AML3 (N-Ras Q61L); assay: Proliferation inhibitory activity, OCI-AML3; type: cell-based, human
Procedure: as §1

[3] = target: ACK1 (Homo sapiens, UniProt Q07912); assay: Inhibitory activity against ACK1 kinase (IC50); type: biochemical
Procedure: (§2) The inhibitory activities of the compounds of the present disclosure against two kinases, GCK and ACK1, were measured, and the IC50 values thereof were calculated.

[4] = target: T1, GCK (Homo sapiens, UniProt Q12851); assay: Inhibitory activity against GCK kinase (IC50); type: biochemical
T1 sequence (Q12851 1-820): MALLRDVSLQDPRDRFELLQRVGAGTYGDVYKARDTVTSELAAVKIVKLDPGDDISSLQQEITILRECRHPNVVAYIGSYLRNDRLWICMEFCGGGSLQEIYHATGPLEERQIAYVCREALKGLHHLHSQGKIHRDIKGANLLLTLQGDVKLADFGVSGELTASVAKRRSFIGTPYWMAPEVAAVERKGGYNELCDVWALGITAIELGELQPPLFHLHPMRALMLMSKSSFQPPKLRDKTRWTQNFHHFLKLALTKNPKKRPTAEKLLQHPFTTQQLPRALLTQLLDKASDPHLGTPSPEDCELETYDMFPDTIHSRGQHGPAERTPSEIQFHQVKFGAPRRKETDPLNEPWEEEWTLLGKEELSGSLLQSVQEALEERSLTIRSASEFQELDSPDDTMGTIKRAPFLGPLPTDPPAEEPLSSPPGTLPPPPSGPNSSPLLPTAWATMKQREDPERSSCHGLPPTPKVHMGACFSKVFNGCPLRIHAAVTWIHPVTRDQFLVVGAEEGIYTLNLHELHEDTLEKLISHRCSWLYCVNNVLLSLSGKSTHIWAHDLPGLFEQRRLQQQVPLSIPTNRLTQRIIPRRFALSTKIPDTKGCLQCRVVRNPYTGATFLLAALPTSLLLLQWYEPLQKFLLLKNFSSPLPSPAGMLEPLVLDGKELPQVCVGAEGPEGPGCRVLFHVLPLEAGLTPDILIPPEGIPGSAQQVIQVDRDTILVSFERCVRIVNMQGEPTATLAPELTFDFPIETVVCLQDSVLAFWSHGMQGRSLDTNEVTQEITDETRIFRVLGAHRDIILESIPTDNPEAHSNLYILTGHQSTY
Procedure: as §2

ACK1, sequence (Q07912 whole entry): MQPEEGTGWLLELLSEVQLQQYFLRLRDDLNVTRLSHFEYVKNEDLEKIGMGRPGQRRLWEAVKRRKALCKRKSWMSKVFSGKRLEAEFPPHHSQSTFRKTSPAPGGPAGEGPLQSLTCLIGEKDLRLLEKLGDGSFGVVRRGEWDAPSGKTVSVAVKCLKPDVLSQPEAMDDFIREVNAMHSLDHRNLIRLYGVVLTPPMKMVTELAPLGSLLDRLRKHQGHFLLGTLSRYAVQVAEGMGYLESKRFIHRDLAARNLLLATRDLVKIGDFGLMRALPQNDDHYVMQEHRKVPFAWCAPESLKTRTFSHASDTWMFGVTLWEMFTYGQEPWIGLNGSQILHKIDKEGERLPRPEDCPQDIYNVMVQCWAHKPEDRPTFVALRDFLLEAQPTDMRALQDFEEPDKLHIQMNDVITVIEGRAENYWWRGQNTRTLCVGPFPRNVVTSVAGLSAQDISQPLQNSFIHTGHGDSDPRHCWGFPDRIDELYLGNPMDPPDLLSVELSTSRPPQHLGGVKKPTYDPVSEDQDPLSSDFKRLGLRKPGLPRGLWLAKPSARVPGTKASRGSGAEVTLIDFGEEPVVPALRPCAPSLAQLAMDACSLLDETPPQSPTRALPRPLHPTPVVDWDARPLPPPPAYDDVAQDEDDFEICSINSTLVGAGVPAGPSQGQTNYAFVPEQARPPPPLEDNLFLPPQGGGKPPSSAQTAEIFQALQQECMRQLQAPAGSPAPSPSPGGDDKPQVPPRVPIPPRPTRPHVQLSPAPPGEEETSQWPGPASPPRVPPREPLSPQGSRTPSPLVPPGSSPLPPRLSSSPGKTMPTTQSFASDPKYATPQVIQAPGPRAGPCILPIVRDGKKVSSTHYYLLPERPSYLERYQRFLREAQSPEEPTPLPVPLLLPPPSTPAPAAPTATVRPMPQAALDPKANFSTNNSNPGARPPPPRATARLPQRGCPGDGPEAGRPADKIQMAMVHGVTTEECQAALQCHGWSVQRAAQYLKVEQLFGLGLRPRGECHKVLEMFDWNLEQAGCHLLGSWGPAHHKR

GI50 ([1]; Mus musculus, BaF3) [µM] | GI50 ([2]; Homo sapiens, OCI-AML-3) [µM] | IC50 [3] [nM] | IC50 [4] [nM] | Compound | GI50 ([1]; Ba/F3 (N-Ras G12D)) [µM] | GI50 ([2]; OCI-AML3 (N-Ras Q61L)) [µM]
0.5 to 3 | 0.5 to 3 |  |  | Cc1ccc(NC(=O)c2cccc(C(F)(F)F)c2)cc1-c1cc2cnc(Nc3ccc(N4CCC(O)CC4)cc3)nc2c(=O)n1C [Compound No. 19, N-(3-(2-((4-(4-hydroxypiperidin-1-yl)phenyl)amino)-7-methyl-8-oxo-7,8-dihydropyrido[3,4-d]pyrimidin-6-yl)-4-methylphenyl)-3-(trifluoromethyl)benzamide] |  | 
0.5 to 3 | 0.5 to 3 |  |  | Cc1ccc(NC(=O)c2cccc(C(F)(F)F)c2)cc1-c1cc2cnc(Nc3ccc(C(=O)N(C)C)cc3)nc2c(=O)n1C [Compound No. 15] |  | 
0.5 to 3 | 0.5 to 3 |  |  | Cc1ccc(NC(=O)c2cccc(C(F)(F)F)c2)cc1-c1cc2cnc(NCCN3CCOCC3)nc2c(=O)n1C [Compound No. 6, N-(4-methyl-3-(7-methyl-2-((2-morpholinoethyl)amino)-8-oxo-7,8-dihydropyrido[3,4-d]pyrimidin-6-yl)phenyl)-3-(trifluoromethyl)benzamide] |  | 
> 5 | 0.5 to 3 |  |  | Cc1ccc(NC(=O)c2cccc(C(F)(F)F)c2)cc1-c1cc2cnc(N3CCOCC3)nc2c(=O)n1C [Compound No. 12, N-(4-methyl-3-(7-methyl-2-morpholino-8-oxo-7,8-dihydropyrido[3,4-d]pyrimidin-6-yl)phenyl)-3-(trifluoromethyl)benzamide] |  | 

Further lines, the molecule ahead of its results:

Compound | GI50 ([1]; Mus musculus, BaF3) [µM] | GI50 ([2]; Homo sapiens, OCI-AML-3) [µM] | IC50 [3] [nM] | IC50 [4] [nM] | GI50 ([1]; Ba/F3 (N-Ras G12D)) [µM] | GI50 ([2]; OCI-AML3 (N-Ras Q61L)) [µM]
COc1cc(N2CCOCC2)ccc1Nc1ncc2cc(-c3cc(NC(=O)c4cccc(C(F)(F)F)c4)ccc3C)n(C)c(=O)c2n1 [Compound No. 22, N-(3-(2-((2-methoxy-4-morpholinophenyl)amino)-7-methyl-8-oxo-7,8-dihydropyrido[3,4-d]pyrimidin-6-yl)-4-methylphenyl)-3-(trifluoromethyl)benzamide] | > 5 | > 5 |  |  |  | 
Cc1ccc(NC(=O)c2cccc(C(F)(F)F)c2)cc1-c1cc2cnc(NC3CC3)nc2c(=O)[nH]1 [Compound No. 53, N-(3-(2-(cyclopropylamino)-8-oxo-7,8-dihydropyrido[3,4-d]pyrimidin-6-yl)-4-methylphenyl)-3-(trifluoromethyl)benzamide] | < 0.5 | < 0.5 | < 100 | 100 to 1000 |  | 
CCN1CCN(c2ccc(Nc3ncc4cc(-c5cc(NC(=O)c6cccc(C(F)(F)F)c6)ccc5C)n(C)c(=O)c4n3)cc2)CC1 [Compound No. 17, N-(3-(2-((4-(4-ethylpiperazin-1-yl)phenyl)amino)-7-methyl-8-oxo-7,8-dihydropyrido[3,4-d]pyrimidin-6-yl)-4-methylphenyl)-3-(trifluoromethyl)benzamide] | 0.5 to 3 | < 0.5 |  |  |  | 
Cc1ccc(Nc2ncc3cc(-c4cc(NC(=O)c5cccc(C(F)(F)F)c5)ccc4C)n(C)c(=O)c3n2)cn1 [Compound No. 13, N-(4-methyl-3-(7-methyl-2-((6-methylpyridin-3-yl)amino)-8-oxo-7,8-dihydropyrido[3,4-d]pyrimidin-6-yl)phenyl)-3-(trifluoromethyl)benzamide] | < 0.5 | < 0.5 | < 100 | 100 to 1000 |  | 
COc1ccc(CNc2ncc3cc(-c4cc(NC(=O)c5cccc(C(F)(F)F)c5)ccc4C)n(C)c(=O)c3n2)cc1 [Compound No. 10, N-(3-(2-((4-methoxybenzyl)amino)-7-methyl-8-oxo-7,8-dihydropyrido[3,4-d]pyrimidin-6-yl)-4-methylphenyl)-3-(trifluoromethyl)benzamide] | > 5 | > 5 |  |  |  | 
Cc1ccc(NC(=O)c2cccc(C(F)(F)F)c2)cc1-c1cc2cnc(NC3CC3)nc2c(=O)n1C [Compound No. 1, N-(3-(2-(cyclopropylamino)-7-methyl-8-oxo-7,8-dihydropyrido[3,4-d]pyrimidin-6-yl)-4-methylphenyl)-3-(trifluoromethyl)benzamide] | 0.5 to 3 | 0.5 to 3 |  |  |  | 
Cc1ccc(NC(=O)c2cccc(C(F)(F)F)c2)cc1-c1cc2cnc(NCCO)nc2c(=O)n1C [Compound No. 2, N-(3-(2-((2-hydroxyethyl)amino)-7-methyl-8-oxo-7,8-dihydropyrido[3,4-d]pyrimidin-6-yl)-4-methylphenyl)-3-(trifluoromethyl)benzamide] | 0.5 to 3 | 0.5 to 3 |  |  |  | 
Cc1ccc(NC(=O)c2cccc(C(F)(F)F)c2)cc1-c1cc2cnc(NCCSCc3ccco3)nc2c(=O)n1C [Compound No. 11, N-(3-(2-((2-((furan-2-ylmethyl)thio)ethyl)amino)-7-methyl-8-oxo-7,8-dihydiropyrido[3,4-d]pyrimidin-6-yl)-4-methylphenyl)-3-(trifluoromethyl)benzamide] |  |  |  |  | > 5 | 3 to 5
Cc1ccc(Nc2ncc3cc(-c4cc(NC(=O)c5cccc(C(F)(F)F)c5)ccc4C)[nH]c(=O)c3n2)cn1 [Compound No. 54, N-(4-methyl-3-(2-((6-methylpyridin-3-yl)amino)-8-oxo-7,8-dihydropyrido[3,4-d]pyrimidin-6-yl)phenyl)-3-(trifluoromethyl)benzamide] | 0.5 to 3 | < 0.5 |  |  |  | 
